These results are taken from patent US5618665A, “Enzymatic fluorometric assay for adenylate cyclase” (Regents of the University of Minnesota, priority 1994, dated 1997).

The test system of experiment [1] is adenylate cyclase. The experiment in a line: Radioactive adenylate cyclase assay (modified Salomon, alpha-32P-ATP), rabbit ventricular membranes. In kind it is biochemical, rabbit (New Zealand white). The conditions noted are these: Iso 10^-6 M; GppNHp 10^-4 M; NaF 10^-2 M; n = 5. As to the method: Ventricular membrane preparations were prepared from five male New Zealand white rabbits (weight 2.4 kg; W.O.R.K., Philomith, Oreg.) sacrificed by cervical concussion and immediate incision of the heart as previously described. Briefly, hearts were placed in ice-cold SET buffer (0.25M sucrose, 0.1 mM EDTA, 5.0 mM Tris HCl, pH 7.4). Portions (1-2 g) from the ventricular apex were minced and then homogenized in ice-cold SET buffer (1/10, w/v). The homogenate was filtered through a Nitex filter (three layers) (Tetko, Los Angeles, Calif.) and then centrifuged for 20 min. at 1000×g. The pellet was resuspended and centrifuged three more times. The final pellet was resuspended in SET buffer (1.5 mg protein/ml) and stored at -70° C. until enzyme activity was measured.
A volume of 1.0 μl of either H2 O, NaF, guanylyl-5'-imidodiphosphate (GppNHp), isoproterenol, or isoproterenol+GppNHp were added to each of five reaction tubes and maintained at 0° C. […] Finally 25 μl of membrane suspension ([…]) were added to each tube and the reaction was initiated by placing the tubes in a water bath at 37° C. After 30 minutes, the reaction was terminated by the addition of 300 μl of a stopping solution which contained 0.34 HCl and ^3 H-cAMP, 10,000-20,000 cpm.
To generate the graph depicted in FIG. 2, 250 μl portions of reaction mixture A and membrane were used and 50 μl samples were removed from the 37° C. bath every 10 minutes, and stopped with 300 μl stopping solution. The assay tubes were heated at 95° C. for 5 minutes. ^32 P-cAMP was isolated using Dowex-alumina chromatography. Recovery, as assessed by ^3 H-cAMP, was 80-95%. All assays were conducted in triplicate. The time course of adenylate cyclase activity (n=5 different rabbit ventricular membrane preparations) is depicted in FIG. 1. Basal AC and agonist stimulated (0.1 mM GppNHp, 0.1 mM) AC are compared. The activity shown is (isoproterenol+GppNHp-stimulated AC activity) minus (GppNHp-stimulated activity). […]

Experiment [2] has as its system adenylate cyclase. Description: Adenylate cyclase activity of rabbit cardiac membranes by enzymatic fluorometric assay (ATP-ADP cycling), radioimmunoassay and Salomon's method. Format: biochemical. The conditions noted are these: isoproterenol 10^-7 and 10^-6 M; NaF 10^-2 M; GppNHp 10^-4 M; carbachol 10^-6 M; adenosine 10^-3 M; three methods. As to the method: Adenylate cyclase activities of six different rabbit cardiac membranes under basal and drug treated conditions were assessed using the fluorometric method of the present invention, radioimmunoassay and original [alpha-^32 P] ATP method developed by Salomon. The first part of the non-radioactive fluorescent technique for measuring adenylate cyclase activity is similar to the method described in Example 2 except that 3-isobutyl-1-methylxanthine (IBMX), rather than theophylline, was used to inhibit phosphodiesterase activity. Furthermore, a series of ATP-ADP enzyme-cycling reactions was used to amplify the cAMP signal, rather then the AMP stimulation of glycogen phosphorylase a utilized in previous examples. Use of the ATP-ADP enzymatic cycling amplification step can lengthen the assay duration, depending upon the desired assay sensitivity.
A volume of 1.0 μl of either H2 O, isoproterenol, NaF, guanylyl-5'-imidodiphosphate (GppNHp), carbachol, and adenosine was added to each of six reaction tubes on ice. Next, 25 μl of cyclase mix (100 mM Tris-acetate, pH 7.4; 4.2 mM KCl; 10 mM MgCl2; 20 mM phosphoenolpyruvate; 2 mM ATP; 20 μM GTP; 2 mM dithiothreitol; 0.04% bovine serum albumin; 0.2 mM 3-isobutyl-1-methylxanthine (IBMX); 100 μg/ml pyruvate kinase) was added to each reaction tube. The stored membrane was diluted with SET buffer in a concentration of 1.5 mg of protein/ml. Finally, 25 μl of membrane suspension, which contained 37.5 μg of protein, was added to each tube, and the reaction was initiated by placing the tubes in a water bath maintained at 37° C. After 30 minutes, the reaction was terminated by heating at 90° C. for 5 minutes. […] Then, 25 μl of cyclase mix and 25 μl of boiled membrane preparation were added to each tube. After 30 minutes, the reaction was terminated by heating at 90° C. for 5 minutes.
A volume of 5 μl of reaction of product from Part A was transferred to Pyrex® tubes. For external cAMP standard, a same volume of known amount of cAMP was also added to assay tubes. Newly synthesized cAMP was measured using the following enzymatic fluorometric assay.
1. A volume of 25 μl of "cleaning" reaction mix (100 mM Tris HCl, pH 8.0; 2 mM MgCl2; 2 units/ml apyrase; 2.5 units/ml 5'-nucleotidase; 50 μg/ml adenosine deaminase; 20 units/ml alkaline phosphatase) was added to each assay tube. The mixture was incubated at 37° C. for 30 minutes. Enzymes were then destroyed by heating for 10 minutes at 90° C.
2. A volume of 25 μl of a phosphodiesterase-containing reaction mix (100 mM Tris-HCl pH 8.0; 2 mM MgCl2; 0.01% bovine serum albumin; 60 μg/m; phosphodiesterase) was added to each assay tube from Step 1. After 60 minutes at 37° C., the assay tubes were heated at 90° C. for 5 minutes.
3. A volume of 25 μl of myokinase reaction mix (100 mM Tris-HCl, pH 8.0; 2 mM MgCl2; 225 mM KCl; 200 nM ATP; 8 mM phosphoenolpyruvate; 2 mM dithiothreitol; 0.01% bovine serum albumin; 24 μg/ml myokinase; 50 μg/ml pyruvate kinase) was added to the assay tubes from Step 2. The reactions were incubated at 37° C. for 2 hours.
4. […]
5. […] After 15 minutes at room temperature, the final concentration of NADPH was measured using a fluorometer (Optical Technology Devices, Inc., New York). The fluorometer was set such that a reading of 1 fluorometric unit was equivalent to 100 pmol of NADPH in 900 μl of buffer (50 mM Tris-HCl, pH 8.0). […]

For experiment [3], the system named is adenylate cyclase. Description: Effect of theophylline on basal and isoproterenol-stimulated adenylate cyclase activity. Format: biochemical. The text has this:
To investigate the effects of theophylline on basal adenylate cyclase activity, increasing concentrations of theophylline were studied (Table 2).

In the case of `[F-].[Na+]` [NaF, Sodium Fluoride], the “Agonist-stimulated adenylate cyclase activity, radioactive assay” value with adenylate cyclase [1] is given as 106.2 ± 3.5 pmoles of cAMP/mg/min. The “effect on cAMP production” value with adenylate cyclase [2] was “increased production”.

For the compound `CC(C)NCC(O)c1ccc(O)c(O)c1` (stereo not drawn) [isoproterenol], in the experiment on adenylate cyclase [1], the “Agonist-stimulated adenylate cyclase activity, radioactive assay” value is given as 38.3 ± 2.3 pmoles of cAMP/mg/min. In addition, the “"fold" stimulation (agonist-stimulated activity/basal activity) of adenylate cyclase activity” value with adenylate cyclase [3] (at a given concentration of isoproterenol, in the presence of theophylline) is reported as “constant”. Further, the “Isoproterenol Stimulated adenylate cyclase activity” value with adenylate cyclase [3] (isoproterenol 10^-6 M, control (no theophylline), n = 5) came to 51.73 ± 10.47 pmol/mg/min. Moreover, the “effect on cAMP production” value with adenylate cyclase [2] was “increased cAMP production, in a concentration-dependent manner”.
